Measurements from patent US20260035364A1, “BICYCLIC TETRAHYDROTHIAZEPINE DERIVATIVES” (Hoffmann-La Roche Inc., priority 2022, published 2026).

Tests used:
[1] = target: DGKalpha (Homo sapiens, UniProt P23743); experiment: In vitro DGK inhibition assay (ADP-Glo, liposomes), DGKalpha; assay type: biochemical; design: hDGKalpha(1-735)-N-His; His (N); made in house; host or cells: Sf21 insect cells (baculovirus); settings: 4 nM DGK α, 25 μM ATP, 125 uM DLG in liposomes, 1 hour reaction
Procedure: DGK α and ζ kinases use ATP to phosphorylate the substrate 1,2-dilauroyl-sn-glycerol (DLG, incorporated in the liposomes). ATP is converted to ADP as a result of this enzymatic reaction. After the kinase reaction, an ATP-depletion reagent is added to terminate the kinase reaction and deplete any remaining ATP, leaving only ADP. Second, a detection reagent is added to simultaneously convert ADP to ATP and allow the newly synthesized ATP to be converted to light using a coupled luciferase/luciferin reaction.
Full length DGKA and Z were expressed in Sf21 insect cells by infecting the cells with the baculovirus stock at MOI of 2. Purification of both enzymes was performed as previously described by Takahashi et al., PeerJ, 2018 (Takahashi, D.; Sakane, F. Expression and purification of human diacylglycerol kinase alpha from baculovirus-infected insect cells for structural studies. PeerJ 2018, 6, No. e5449).
A concentrated liposome solution was prepared in assay buffer without DTT and BSA: 2 mM of DLG in 21 mM of total liposome (2 mM DLG/8 mM PS/11 mM PC). The reaction mixtures contain the assay buffer with a final DLG concentration of 125 uM ATP concentrations of 25 μM (for DGKA assay) or 50 μM (for DGKZ assay). The reactions were started by addition of DGK a and (kinases at 4 nM and 2 nM final concentrations, respectively. After 1 hour reaction, the amount of ADP formed was detected with the ADP-Glo kinase assay (Promega) according to the manufacturer instructions. Compounds were added in 11-points dose response, starting at […], 1:3 dilutions, with a final DMSO concentration of 2%. The multidrop combi was used as a liquid handler and luminescence was read with 0.5 s by the envision reader (PE).

[2] = system: primary human T-cells; experiment: T-cell proliferation assay (CellTiter-Glo); assay type: cell-based; settings: Homo sapiens, T-cell, 120 h, CD3 condition; for Emax: 5 days, 20 μM reference compound A1 = 100%, read-out: Emax proliferation (% activation); for EC50: proliferation after 5 days, CellTiter-Glo, read-out: Tcell Proliferation CD3 EC50
Procedure: Expanded primary human T-cells are thawed and cultured in RPMI 1640 (Gibco, #61870-010)+5% human serum (HS, Sigma, #H3667)+1 mM Sodium Pyruvate (Gibco, #11360-039)+50 μM 2-mercaptoethanol (Gibco, #31350-010) and 1× Pen-Strep (Life Technologies, #15140122) medium at density of 2 Mio/ml for 3 hours in 5% CO2, 37° C. and 95% humidity. For coating of plates, PBS++ only or PBS++ with CD3 antibody (concentration depending on donor and determined by CD3 titrations) is added 100 μl/well to Poly-D Lysine coated 96-well plates. Plates are sealed and incubated at room temperature for 3 hours on a table-top rocking platform. After incubation, plates are washed once with PBS−− and filled with 40 μl/well culture medium only. Compounds are then added (see next section) to medium only plates. After 3 hours of culturing the T-cells, cells are filtered through a cell strainer (Miltenyi Biotech, #130-041-407), counted again and concentration is adjusted to 1.25 Mio/ml.
Cells are then seeded 80 μl/well to the 40 µl/well including dispensed compounds according to plate layout. By adding cells, compounds are further diluted 1:3, and resulting in 100k cells/120 µl/well. After 48 hours 40 μl of supernatant is collected carefully from the top while not disturbing the cells. Cells are assessed for proliferation 5 days later by measuring […] using CellTiterGlo (Promega).
Compounds were added in a 5 or 6 pt dose response with the Tecan D300e Digital Dispenser, all conditions 3 times more concentrated than the end-concentration, since cells are added afterwards (80p1 cells to 40p1 prepared medium with treatment). The DR was starting at 20 μM or 10 μM final top concentration and a dilution factor of 3.333. The positive control was the reference compound A1 that was added in a dose response as well, additionally to 3 wells of only 20 μM representing the positive stimulator control. All wells were normalized with DMSO to a final concentration of 0.6% (0.2% end-concentration).
After 5 days, for detection of ATP which is directly proportional to the number of cells present per well, the CellTiter-Glo® 2.0 Reagent is used. After visual control for toxicity or precipitations of the tested compounds, the plates are equilibrated to room temperature for 45 minutes. CellTiter-Glo® 2.0 Reagent is equilibrated to room temperature as well. After equilibration, an equal amount of CellTiter-Glo reagent is added to the cells (80 µl/well) with an electronic multichannel pipette. Plates are placed on a rocking platform for 15 minutes at room temperature. After incubation, the bottom of the plates is sealed with backing tape. Luminescence is measured with PHERAstar FSX (interval time 0.5 sec, gain 3000, focal height 15 mm) and exported as CSV file for analysis in Genedata screener.
Calculations and Data Reporting CD3 and PBS plates were analysed separately in Genedata Screener using Roche Normalization PCT_POS_CTRL with DMSO set as Neutral Control and 20 μM of the reference compound A1 set as Stimulator Control/100%.
For CD3 conditions EC50 and Emax of the fitted sigmoidal curve were reported. If no curve could be fitted, the EC50 was reported as blank field and the Emax was based on individual data points. […] Compounds which activate unstimulated cells (see IL2 measurements) or compounds which negatively affected viability were flagged.

Chain of DGKalpha (P23743 whole entry): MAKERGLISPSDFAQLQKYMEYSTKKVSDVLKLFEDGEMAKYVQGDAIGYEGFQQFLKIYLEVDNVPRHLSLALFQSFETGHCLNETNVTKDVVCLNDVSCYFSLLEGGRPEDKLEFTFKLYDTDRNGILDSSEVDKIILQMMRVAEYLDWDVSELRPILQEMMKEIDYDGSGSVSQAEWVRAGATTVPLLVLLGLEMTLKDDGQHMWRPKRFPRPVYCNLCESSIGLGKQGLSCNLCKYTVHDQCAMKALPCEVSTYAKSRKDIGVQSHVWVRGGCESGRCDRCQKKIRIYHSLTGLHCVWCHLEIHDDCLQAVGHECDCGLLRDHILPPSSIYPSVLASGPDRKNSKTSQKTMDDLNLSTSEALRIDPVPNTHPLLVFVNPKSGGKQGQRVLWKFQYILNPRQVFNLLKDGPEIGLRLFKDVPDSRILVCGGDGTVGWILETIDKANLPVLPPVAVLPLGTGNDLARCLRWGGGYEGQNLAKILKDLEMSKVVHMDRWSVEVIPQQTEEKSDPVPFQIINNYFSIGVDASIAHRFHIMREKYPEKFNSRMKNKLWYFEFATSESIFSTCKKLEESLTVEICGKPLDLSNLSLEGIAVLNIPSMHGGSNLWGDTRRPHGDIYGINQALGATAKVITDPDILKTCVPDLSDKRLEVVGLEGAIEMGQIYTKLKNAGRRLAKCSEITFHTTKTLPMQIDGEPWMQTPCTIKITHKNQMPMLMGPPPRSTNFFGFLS

SMILES	IC50 [1] [nM]	Emax [2] [%]	EC50 [2] [nM]
CC(C)(c1nnc(-c2ccc3c(c2)N(Cc2ccc(Oc4ccc(F)c(Cl)c4)cc2)C(=O)[C@@H](N)CS3(=O)=O)o1)S(C)(=O)=O [Example 37, (3R)-3-amino-5-[[4-(3-chloro-4-fluoro-phenoxy)phenyl]methyl]-7-[5-(1-methyl-1-methylsulfonyl-ethyl)-1,3,4-oxadiazol-2-yl]-1,1-dioxo-2,3-dihydro-1λ6,5-benzothiazepin-4-one]	11100	115	1290
CC(C)(c1nnc(-c2ccc3c(c2)N(Cc2ccc(Oc4cccc(F)c4)cc2)C(=O)[C@@H](N)CS3(=O)=O)o1)S(C)(=O)=O [Example 33, (3R)-3-amino-5-[[4-(3-fluorophenoxy)phenyl]methyl]-7-[5-(1-methyl-1-methylsulfonyl-ethyl)-1,3,4-oxadiazol-2-yl]-1,1-dioxo-2,3-dihydro-1λ6,5-benzothiazepin-4-one]	4750	82	645
CC(C)(c1nnc(-c2ccc3c(c2)N(Cc2ccc(OCc4ccccc4F)cc2)C(=O)[C@@H](N)CS3(=O)=O)o1)S(C)(=O)=O [Example 14, (3R)-3-amino-5-[[4-[(2-fluorophenyl)methoxy]phenyl]methyl]-7-[5-(1-methyl-1-methylsulfonyl-ethyl)-1,3,4-oxadiazol-2-yl]-1,1-dioxo-2,3-dihydro-1λ6,5-benzothiazepin-4-one]	2020	113	1220
CC(C)(c1nnc(-c2ccc3c(c2)N(Cc2ccc(Oc4ccccc4)cc2)C(=O)[C@@H](N)CS3(=O)=O)o1)S(=O)(=O)C1CC1 [Example 61, (3R)-3-amino-7-[5-(1-cyclopropylsulfonyl-1-methyl-ethyl)-1,3,4-oxadiazol-2-yl]-1,1-dioxo-5-[(4-phenoxyphenyl)methyl]-2,3-dihydro-1λ6,5-benzothiazepin-4-one]	4770	58	4560
CC(C)(c1nnc(-c2ccc3c(c2)N(Cc2ccc(SC(F)(F)F)cc2)C(=O)[C@@H](N)CS3(=O)=O)o1)S(C)(=O)=O [Example 7]	2300	76	3590
CC(C)(c1nnc(-c2ccc3c(c2)N(Cc2ccc(Oc4cc(F)cc(C(F)(F)F)c4)cc2)C(=O)[C@@H](N)CS3(=O)=O)o1)S(C)(=O)=O [Example 39]	34900	108	1330
CC(C)(c1nnc(-c2ccc3c(c2)N(Cc2ccc(OC4CCCC4)cc2)C(=O)[C@@H](N)CS3(=O)=O)o1)S(C)(=O)=O [Example 16, (3R)-3-amino-5-[[4-(cyclopentoxy)phenyl]methyl]-7-[5-(1-methyl-1-methylsulfonyl-ethyl)-1,3,4-oxadiazol-2-yl]-1,1-dioxo-2,3-dihydro-1λ6,5-benzothiazepin-4-one]	1510	81	5360
Cc1cccc(Oc2ccc(CN3C(=O)[C@@H](N)CS(=O)(=O)c4ccc(-c5nnc(C(C)(C)S(C)(=O)=O)o5)cc43)cc2)c1 [Example 31]	1780	106	599
COc1ccc(-c2ccc(CN3C(=O)[C@@H](N)CS(=O)(=O)c4ccc(-c5nnc(C(C)(C)S(C)(=O)=O)o5)cc43)cc2)cc1 [Example 21, (3R)-3-amino-5-[[4-(4-methoxyphenyl)phenyl]methyl]-7-[5-(1-methyl-1-methylsulfonyl-ethyl)-1,3,4-oxadiazol-2-yl]-1,1-dioxo-2,3-dihydro-1λ6,5-benzothiazepin-4-one]	1270	115	1130
COc1ccc(-c2ccc(CN3C(=O)[C@@H](N)CS(=O)(=O)c4ccc(-c5noc(C(C)(C)S(C)(=O)=O)n5)cc43)cc2)cc1 [Example 63, (3R)-3-amino-5-[[4-(4-methoxyphenyl)phenyl]methyl]-7-[5-(1-methyl-1-methylsulfonyl-ethyl)-1,2,4-oxadiazol-3-yl]-1,1-dioxo-2,3-dihydro-1λ6,5-benzothiazepin-4-one]	58900	98	92

These reach a lower IC50 [1]. Values come first.

IC50 [1] [nM]	SMILES	Emax [2] [%]	EC50 [2] [nM]
1020	CC(C)(c1nnc(-c2ccc3c(c2)N(Cc2ccc(-c4ccc(C(F)(F)F)cn4)cc2)C(=O)[C@@H](N)CS3(=O)=O)o1)S(C)(=O)=O [Example 10]	145	1160
669	CC(C)(c1nnc(-c2ccc3c(c2)N(Cc2ccc(OCc4ccc(F)cc4)cc2)C(=O)[C@@H](N)CS3(=O)=O)o1)S(C)(=O)=O [Example 12, (3R)-3-amino-5-[[4-[(4-fluorophenyl)methoxy]phenyl]methyl]-7-[5-(1-methyl-1-methylsulfonyl-ethyl)-1,3,4-oxadiazol-2-yl]-1,1-dioxo-2,3-dihydro-1λ6,5-benzothiazepin-4-one]	151	590
534	COc1ccc(-c2ccc(CN3C(=O)[C@@H](N)CS(=O)(=O)c4cc(F)c(-c5nnc(C(C)(C)S(C)(=O)=O)o5)cc43)cc2)cc1 [Example 29, (3R)-3-amino-8-fluoro-5-[[4-(4-methoxyphenyl)phenyl]methyl]-7-[5-(1-methyl-1-methylsulfonyl-ethyl)-1,3,4-oxadiazol-2-yl]-1,1-dioxo-2,3-dihydro-1λ6,5-benzothiazepin-4-one]	108	55
753	CC(C)(c1nnc(-c2ccc3c(c2)N(Cc2ccc(OCc4ccccc4)cc2)C(=O)[C@@H](N)CS3(=O)=O)o1)S(C)(=O)=O [Example 11, (3R)-3-amino-5-[(4-benzyloxyphenyl)methyl]-7-[5-(1-methyl-1-methylsulfonyl-ethyl)-1,3,4-oxadiazol-2-yl]-1,1-dioxo-2,3-dihydro-1λ6,5-benzothiazepin-4-one]	145	495
683	CC(C)(c1nc(-c2cc3c(cc2F)S(=O)(=O)C[C@H](N)C(=O)N3Cc2ccc(OC(F)(F)F)cc2)no1)S(C)(=O)=O [Example 44, (3R)-3-amino-8-fluoro-7-[5-(1-methyl-1-methylsulfonyl-ethyl)-1,2,4-oxadiazol-3-yl]-1,1-dioxo-5-[[4-(trifluoromethoxy)phenyl]methyl]-2,3-dihydro-1λ6,5-benzothiazepin-4-one]	251	208
